In PubChem BioAssay (NCI):
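Cultured in 96-well plates, cells were exposed to test compound for 48 hours across five concentrations. TGI denotes the concentration required for complete inhibition of growth.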

What was measured:
Test in all cases: growth of human tumour cells (NCI), 48 h
A549 NSCLC = test system: A549 NSCLC
HCT-15 colon = test system: HCT-15 colon
SK-MEL-28 melanoma = test system: SK-MEL-28 melanoma
SNB-75 CNS = test system: SNB-75 CNS
A498 renal = test system: A498 renal
786-0 renal = test system: 786-0 renal
NCI-H226 lung = test system: NCI-H226 lung
HCT-116 colon = test system: HCT-116 colon
SK-MEL-2 melanoma = test system: SK-MEL-2 melanoma
OVCAR-5 ovarian = test system: OVCAR-5 ovarian
SF-539 CNS = test system: SF-539 CNS
SNB-19 CNS = test system: SNB-19 CNS
SNB-78 CNS = test system: SNB-78 CNS
DMS 114 small cell lung = test system: DMS 114 small cell lung
K-562 leukemia = test system: K-562 leukemia
U251 CNS = test system: U251 CNS
DMS 273 small cell lung = test system: DMS 273 small cell lung
NCI-H522 lung = test system: NCI-H522 lung
NCI-H460 lung = test system: NCI-H460 lung
RPMI-8226 leukemia = test system: RPMI-8226 leukemia
IGROV1 ovarian = test system: IGROV1 ovarian
SK-OV-3 ovarian = test system: SK-OV-3 ovarian
UACC-62 melanoma = test system: UACC-62 melanoma
HT29 colon = test system: HT29 colon
XF 498 CNS = test system: XF 498 CNS
OVCAR-4 ovarian = test system: OVCAR-4 ovarian
M14 melanoma = test system: M14 melanoma
ACHN renal = test system: ACHN renal
MOLT-4 leukemia = test system: MOLT-4 leukemia
OVCAR-8 ovarian = test system: OVCAR-8 ovarian
KM12 colon = test system: KM12 colon
CCRF-CEM leukemia = test system: CCRF-CEM leukemia
EKVX NSCLC = test system: EKVX NSCLC
LXFL 529 NSCLC = test system: LXFL 529 NSCLC
SF-295 CNS = test system: SF-295 CNS
KM20L2 colon = test system: KM20L2 colon
M19-MEL melanoma = test system: M19-MEL melanoma
HCC-2998 colon = test system: HCC-2998 colon
NCI-H23 lung = test system: NCI-H23 lung
UACC-257 melanoma = test system: UACC-257 melanoma
DLD-1 colon = test system: DLD-1 colon
MALME-3M melanoma = test system: MALME-3M melanoma
CAKI-1 renal = test system: CAKI-1 renal
SN12C renal = test system: SN12C renal
UO-31 renal = test system: UO-31 renal
SF-268 CNS = test system: SF-268 CNS
RXF 393 renal = test system: RXF 393 renal
HOP-62 NSCLC = test system: HOP-62 NSCLC
OVCAR-3 ovarian = test system: OVCAR-3 ovarian
SW-620 colon = test system: SW-620 colon
COLO 205 colon = test system: COLO 205 colon
HOP-92 NSCLC = test system: HOP-92 NSCLC
TK-10 renal = test system: TK-10 renal

In the case of N=c1oc2c(O)c(O)ccc2cc1C(N)=O, the TGI (A549 NSCLC) was > 100 µM, the TGI (HCT-15 colon) was > 100 µM and the TGI (SK-MEL-28 melanoma) was > 100 µM. For the same molecule, the TGI (SNB-75 CNS) was 97.6 µM, the TGI (A498 renal) was > 100 µM and the TGI (786-0 renal) was 25.3 µM. The TGI (NCI-H226 lung) was > 100 µM, the TGI (HCT-116 colon) was > 100 µM and the TGI (SK-MEL-2 melanoma) was > 100 µM. The TGI (OVCAR-5 ovarian) was > 100 µM, the TGI (SF-539 CNS) was > 100 µM and the TGI (SNB-19 CNS) was > 100 µM. For the same molecule, the TGI (SNB-78 CNS) was > 100 µM, the TGI (DMS 114 small cell lung) was > 100 µM and the TGI (K-562 leukemia) was 36.4 µM. For the same molecule, the TGI (U251 CNS) was > 100 µM, the TGI (DMS 273 small cell lung) was > 100 µM and the TGI (NCI-H522 lung) was > 100 µM. For the same molecule, the TGI (NCI-H460 lung) was > 100 µM, the TGI (RPMI-8226 leukemia) was > 100 µM and the TGI (IGROV1 ovarian) was > 100 µM. For the same molecule, the TGI (SK-OV-3 ovarian) was > 100 µM, the TGI (UACC-62 melanoma) was > 100 µM and the TGI (HT29 colon) was > 100 µM. For the same molecule, the TGI (XF 498 CNS) was 53 µM, the TGI (OVCAR-4 ovarian) was 31.7 µM and the TGI (M14 melanoma) was > 100 µM. The TGI (ACHN renal) was > 100 µM, the TGI (MOLT-4 leukemia) was 75.2 µM and the TGI (OVCAR-8 ovarian) was 50.9 µM. For the same molecule, the TGI (KM12 colon) was > 100 µM, the TGI (CCRF-CEM leukemia) was 47 µM and the TGI (EKVX NSCLC) was > 100 µM. For the same molecule, the TGI (LXFL 529 NSCLC) was 93.1 µM, the TGI (SF-295 CNS) was 94.5 µM and the TGI (KM20L2 colon) was > 100 µM. For the same molecule, the TGI (M19-MEL melanoma) was 44.8 µM, the TGI (HCC-2998 colon) was > 100 µM and the TGI (NCI-H23 lung) was > 100 µM. For the same molecule, the TGI (UACC-257 melanoma) was > 100 µM, the TGI (DLD-1 colon) was > 100 µM and the TGI (MALME-3M melanoma) was > 100 µM. For the same molecule, the TGI (CAKI-1 renal) was > 100 µM, the TGI (SN12C renal) was > 100 µM and the TGI (UO-31 renal) was > 100 µM. For the same molecule, the TGI (SF-268 CNS) was > 100 µM, the TGI (RXF 393 renal) was > 100 µM and the TGI (HOP-62 NSCLC) was > 100 µM. The TGI (OVCAR-3 ovarian) was > 100 µM, the TGI (SW-620 colon) was 83.4 µM and the TGI (COLO 205 colon) was > 100 µM. The TGI (HOP-92 NSCLC) was > 100 µM and the TGI (TK-10 renal) was > 100 µM.
